Drawing on the supplement of paper PMC10307832, this text covers relative viability for 1 cell line.

What all share (experiment): relative viability (nuclei count vs DMSO), 5 days (fraction); higher = more cells survive
Compound in the test “Irinotecan + Luminespib”: CCc1c2c(nc3ccc(OC(=O)N4CCC(N5CCCCC5)CC4)cc13)-c1cc3c(c(=O)n1C2)COC(=O)[C@]3(O)CC [Irinotecan] + CCNC(=O)c1noc(-c2cc(C(C)C)c(O)cc2O)c1-c1ccc(CN2CCOCC2)cc1 [Luminespib] (partner 0.01 µM)
The method, boiled down: (§1)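 The day after seeding in 1536-well plates, lung cancer cell lines were treated by pin tool with a single drug, or with a fixed anchor-drug dose together with five library-drug doses (not always all listed) in √10 steps. After 5 days, a combined fix-and-stain solution (final 0.05% Triton X-100, 1% formaldehyde, 1 ug/ml Hoechst) was added. Nuclei counted on 4× images gave relative viability as treated counts over vehicle counts, reported as the median of duplicate plates.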

Compound in the test “Irinotecan + Olaparib”: CCc1c2c(nc3ccc(OC(=O)N4CCC(N5CCCCC5)CC4)cc13)-c1cc3c(c(=O)n1C2)COC(=O)[C@]3(O)CC [Irinotecan] + O=C(c1cc(Cc2n[nH]c(=O)c3ccccc23)ccc1F)N1CCN(C(=O)C2CC2)CC1 [Olaparib] (partner 8 µM)
The method, boiled down: as §1

Compound in the test “MK-8033 + Lapatinib”: Cn1cc(-c2cnc3ccc4ccc(CS(=O)(=O)NCc5ccccn5)cc4c(=O)c3c2)cn1 [MK-8033] + CS(=O)(=O)CCNCc1ccc(-c2ccc3ncnc(Nc4ccc(OCc5cccc(F)c5)c(Cl)c4)c3c2)o1 [Lapatinib] (partner 2 µM)
The method, boiled down:
as §1

Compound in the test “MK-8033 + Decitabine”: Cn1cc(-c2cnc3ccc4ccc(CS(=O)(=O)NCc5ccccn5)cc4c(=O)c3c2)cn1 [MK-8033] + Nc1ncn([C@H]2C[C@H](O)[C@@H](CO)O2)c(=O)n1 [Decitabine] (partner 2 µM)
The method, boiled down: as §1

For SW 1573, the relative viability with Irinotecan + Luminespib (first compound 0.6325 µM) is 0.232; with Irinotecan + Luminespib (first compound 2 µM) it was 0.269; in the test with Irinotecan + Luminespib (first compound 6.325 µM), 0.195; with Irinotecan + Luminespib (first compound 20 µM), 0.148; in the test with Irinotecan + Olaparib (first compound 0.6325 µM) it was 0.267; with Irinotecan + Olaparib (first compound 2 µM) it was 0.239. Moreover, the relative viability was found to be 0.157 with Irinotecan + Olaparib (first compound 6.325 µM); 0.121 with Irinotecan + Olaparib (first compound 20 µM); 1.06 with MK-8033 + Lapatinib (first compound 0.02 µM); 1.09 in the test with MK-8033 + Lapatinib (first compound 0.06325 µM); 0.976 with MK-8033 + Lapatinib (first compound 0.2 µM); 1.14 with MK-8033 + Lapatinib (first compound 0.6325 µM). Also, the relative viability in the test with MK-8033 + Lapatinib (first compound 2 µM) turned out to be 0.994; with MK-8033 + Decitabine (first compound 0.02 µM), 0.528; with MK-8033 + Decitabine (first compound 0.06325 µM) it was 0.467; with MK-8033 + Decitabine (first compound 0.2 µM), 0.524; with MK-8033 + Decitabine (first compound 0.6325 µM), 0.502; with MK-8033 + Decitabine (first compound 2 µM), 0.474.
